Data reported in patent publication US20090209536A1, “AMINOQUINAZOLINE CANNABINOID RECEPTOR MODULATORS FOR TREATMENT OF DISEASE” (KALYPSYS, INC., priority 2007, published 2009).
Read-outs that look alike come from different tables or passages of the source.

Legend:
[1] = target: T1, human cannabinoid receptor type 2 (Homo sapiens, UniProt P34972); assay: Human CB2 Radioligand Binding Assay; settings: membranes from stably transfected CHO CB2 cells
T1 construct: expressed in transfected cells; membrane preparation
In short: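 Filtration competition binding on membranes from CHO cells stably expressing human CB2, with [3H]CP-55,940 at its lot-specific Kd, in 50 mM Tris-HCl pH 7.4, EGTA, MgCl2, 5 mg/ml BSA, 1% DMSO; 90 min at 30° C. Compounds at 10 uM single point or dose-response; bound radioactivity by scintillation, 100 nM CP-55,940 as 100% efficacy.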

[2] = target: T2, human cannabinoid receptor type 1 (Homo sapiens, UniProt P21554); assay: Human CB1 Radioligand Binding Assay (basis of selectivity, CB2 vs. CB1); settings: CB1: HEK 293 EBNA cells expressing human CB1; CB2: CHO CB2 membranes
T2 construct: purchased Perkin Elmer RBHCB1M; host or cells: HEK 293 EBNA cells
Procedure: 2. Human CB1 Radioligand Binding Assay
The incubation buffer was composed of 50 mM Tris-HCl pH 7.4, 2.5 mM EDTA, 5 mM MgCl2, 5.0 mg/ml fatty acid free BSA and the wash buffer was composed of 50 mM Tris-HCl pH 7.4, 2.5 mM EDTA, 5 mM MgCl2, 0.5 mg/ml fatty acid free BSA.

[3] = CB2 Ligand Binding Asssay EC50, competition with [3H] CP-55,940
[4] = competition with [3H] CP-55,940, read-out: CB2 Ligand Binding Asssay EC50

T2 sequence (P21554 whole entry): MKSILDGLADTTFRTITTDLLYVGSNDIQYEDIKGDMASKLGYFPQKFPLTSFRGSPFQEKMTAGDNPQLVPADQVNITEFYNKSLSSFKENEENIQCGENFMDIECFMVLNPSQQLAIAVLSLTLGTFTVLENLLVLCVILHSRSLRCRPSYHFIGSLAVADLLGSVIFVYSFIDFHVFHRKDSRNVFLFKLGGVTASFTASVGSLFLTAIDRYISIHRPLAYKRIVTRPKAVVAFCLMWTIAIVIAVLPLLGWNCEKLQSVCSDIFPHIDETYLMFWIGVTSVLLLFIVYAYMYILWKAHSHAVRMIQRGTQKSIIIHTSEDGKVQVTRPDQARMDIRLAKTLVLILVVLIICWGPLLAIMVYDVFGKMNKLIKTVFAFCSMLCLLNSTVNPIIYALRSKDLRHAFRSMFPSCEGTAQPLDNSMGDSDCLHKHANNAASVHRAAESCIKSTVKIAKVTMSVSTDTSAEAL
T1 sequence (P34972 whole entry): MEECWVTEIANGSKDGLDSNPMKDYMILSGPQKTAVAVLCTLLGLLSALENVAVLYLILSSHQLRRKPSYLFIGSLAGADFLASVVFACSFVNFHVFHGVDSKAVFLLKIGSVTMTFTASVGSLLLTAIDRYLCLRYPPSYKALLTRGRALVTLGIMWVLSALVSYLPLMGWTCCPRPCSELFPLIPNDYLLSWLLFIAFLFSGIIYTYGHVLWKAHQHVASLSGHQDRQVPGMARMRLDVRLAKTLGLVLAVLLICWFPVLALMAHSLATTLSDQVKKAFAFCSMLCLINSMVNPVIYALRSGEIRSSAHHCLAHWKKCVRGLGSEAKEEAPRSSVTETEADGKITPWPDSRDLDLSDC

SMILES	Selectivity, CB2 vs. CB1 [2]	EC50 [1, 4]	EC50 [1, 3]
CC(C)OC(=O)N1CCN(c2nc(-c3ccccc3Cl)nc3ccccc23)CC1 [Example 93, Isopropyl 4-(2-(2-chlorophenyl)quinazolin-4-yl)piperazine-1-carboxylate]	+ (+ indicates > 10−fold)	–	> 1000 nM
Fc1ccccc1-c1nc(N2CCOCC2)c2ccccc2n1 [Example 149, 2-(2-Fluorophenyl)-4-morpholin-4-ylquinazoline]	− (− indicates ≦ 10−fold)	> 1000 nM	–
CN1CCN(c2nc(C3CCCCC3)nc3ccc(Cl)cc23)CC1 [Example 161, 6-Chloro-2-cyclohexyl-4-(4-methylpiperazin-1-yl)quinazoline]	− (− indicates ≦ 10−fold)	< 1000 nM	–
Fc1ccc(-c2nc(N3CCCC3)c3ccccc3n2)cc1F [Example 13, 2-(3,4-Difluorophenyl)-4-(pyrrolidin-1-yl)quinazoline]	− (− indicates ≦ 10−fold)	< 1000 nM	–
Clc1ccc(-c2nc(NCC3CC3)c3ccccc3n2)c(Cl)c1 [Example 30, Cyclopropylmethyl[2-(2,4-dichlorophenyl)quinazolin-4-yl]amine]	+ (+ indicates > 10−fold)	–	> 1000 nM
Clc1ccc2c(N3CCCC3)nc(-c3ccccc3Cl)nc2c1 [Example 235, 7-Chloro-2-(2-chlorophenyl)-4-(pyrrolidin-1-yl)quinazoline]	− (− indicates ≦ 10−fold)	–	> 1000 nM
Cc1ccccc1-c1nc(N2CCOCC2)c2ccccc2n1 [Example 156, 4-Morpholin-4-yl-2-o-tolylquinazoline]	− (− indicates ≦ 10−fold)	> 1000 nM	–
c1ccc2c(N3CCOCC3)nc(C3CCCCC3)nc2c1 [Example 35, 4-(2-Cyclohexylquinazolin-4-yl)morpholine]	− (− indicates ≦ 10−fold)	< 1000 nM	–
Clc1ccc2nc(C3CCCCC3)nc(N3CCCC3)c2c1 [Example 167, 6-Chloro-2-cyclohexyl-4-(pyrrolidin-1-yl)quinazoline]	+ (+ indicates > 10−fold)	< 1000 nM	–
CCOC(=O)N1CCN(c2nc(Cc3cccc(OC)c3)nc3ccccc23)CC1 [Example 196, Ethyl 4-(2-(3-Methoxybenzyl)quinazolin-4-yl)piperazine-1-carboxylate]	− (− indicates ≦ 10−fold)	> 1000 nM	–
CN(Cc1ccccc1)c1nc(-c2ccc(Cl)cc2)nc2ccccc12 [Example 120, N-Benzyl-2-(4-chlorophenyl)-N-methylquinazolin-4-amine]	− (− indicates ≦ 10−fold)	> 1000 nM	–
Cc1ccccc1C(C)c1nc(N2CCCC2)c2ccccc2n1 (stereo not shown) [Example 342, 4-(Pyrrolidin-1-yl)-2-(1-o-tolylethyl)quinazoline]	− (− indicates ≦ 10−fold)	> 1000 nM	–
COc1cc2nc(CNS(=O)(=O)c3cccc4ccccc34)nc(N3CCCC3)c2cc1OC [Example 307, N-((6,7-Dimethoxy-4-(pyrrolidin-1-yl)quinazolin-2-yl)methyl)naphthalene-1-sulfonamide]	− (− indicates ≦ 10−fold)	< 1000 nM	–
O=S(=O)(NCc1nc(N2CCOCC2)c2ccccc2n1)c1cccc2ccccc12 [Example 300, N-((4-Morpholinoquinazolin-2-yl)methyl)naphthalene-1-sulfonamide]	+ (+ indicates > 10−fold)	< 1000 nM	–
CC(C)S(=O)(=O)N1CCN(c2nc(-c3ccccc3Cl)nc3ccccc23)CC1 [Example 83, 2-(2-Chlorophenyl)-4-[4-(propane-2-sulfonyl)piperazin-1-yl]quinazoline]	− (− indicates ≦ 10−fold)	–	> 1000 nM
CC(=O)N1CCN(c2nc(-c3ccc(F)c(F)c3)nc3ccccc23)CC1 [Example 19, 1-(4-(2-(3,4-Difluorophenyl)quinazolin-4-yl)piperazin-1-yl)ethanone]	+ (+ indicates > 10−fold)	< 1000 nM	–
CCOC(=O)N1CCN(c2nc(-c3ccccc3Cl)nc3cccc(C(F)(F)F)c23)CC1 [Example 241, Ethyl 4-(2-(2-chlorophenyl)-5-(trifluoromethyl)quinazolin-4-yl)piperazine-1-carboxylate]	+ (+ indicates > 10−fold)	< 1000 nM	–
c1ccc2c(N3CCOCC3)nc(C3CCCC3)nc2c1 [Example 137, 2-Cyclopentyl-4-morpholin-4-ylquinazoline]	− (− indicates ≦ 10−fold)	> 1000 nM	–

Second part, led by results:

Selectivity, CB2 vs. CB1 [2]	EC50 [1, 4]	SMILES	EC50 [1, 3]
− (− indicates ≦ 10−fold)	> 1000 nM	CC(C)(C)NC(=O)N1CCN(c2nc(-c3ccccc3Cl)nc3ccccc23)CC1 [Example 89, N-tert-Butyl-4-(2-(2-chlorophenyl)quinazolin-4-yl)piperazine-1-carboxamide]	–
− (− indicates ≦ 10−fold)	> 1000 nM	C[C@@H]1CN(c2nc(-c3ccccc3Cl)nc3ccccc23)C[C@H](C)N1 [Example 77, 2-(2-Chlorophenyl)-4-((3S,5R)-3,5-dimethylpiperazin-1-yl)quinazoline]	–
− (− indicates ≦ 10−fold)	> 1000 nM	CN1CCN(c2nc(-c3ccccc3Cl)nc3ccccc23)CC1=O [Example 76, 4-(2-(2-Chlorophenyl)quinazolin-4-yl)-1-methylpiperazin-2-one]	–
− (− indicates ≦ 10−fold)	> 1000 nM	Clc1ccccc1-c1nc(NCC2CCCO2)c2ccccc2n1 (stereo not shown) [Example 188, 2-(2-Chlorophenyl)-N-((tertrahydrofuran-2-yl)methyl)quinzaoline-4-amine]	–
− (− indicates ≦ 10−fold)	> 1000 nM	Clc1ccccc1-c1nc(N2CCN(c3nccs3)CC2)c2ccccc2n1 [Example 264, 2-(4-(2-(2-Chlorophenyl)quinazolin-4-yl)piperazin-1-yl)thiazole]	–
+ (+ indicates > 10−fold)	< 1000 nM	Clc1nccc(N2CCN(c3nc(-c4ccccc4Cl)nc4ccccc34)CC2)n1 [Example 197, 2-(2-Chlorophenyl)-4-(4-(2-chloropyrimidin-4-yl)piperazin-1-yl)quinazoline]	–
− (− indicates ≦ 10−fold)	> 1000 nM	O=C1CNCCN1c1nc(-c2ccccc2Cl)nc2ccccc12 [Example 71, 1-(2-(2-Chlorophenyl)quinazolin-4-yl)piperazin-2-one]	–
− (− indicates ≦ 10−fold)	> 1000 nM	CC(C)(C)c1ccc(Nc2nc(-c3ccccc3Cl)nc3ccccc23)cc1 [Example 69, (4-tert-Butylphenyl)-[2-(2-chlorophenyl)quinazolin-4-yl]amine]	–
+ (+ indicates > 10−fold)	< 1000 nM	CC(C)C(=O)N1CCN(c2nc(-c3ccccc3Cl)nc3ccccc23)CC1 [Example 96, 1-(4-(2-(2-Chlorophenyl)quinazolin-4-yl)piperazin-1-yl)-2-methylpropan-1-one]	–
+ (+ indicates > 10−fold)	< 1000 nM	Clc1ccccc1-c1nc(N2CCCCC2)c2ccccc2n1 [Example 54, 2-(2-Chlorophenyl)-4-(piperidin-1-yl)quinazoline]	–
− (− indicates ≦ 10−fold)	> 1000 nM	COC(=O)c1ccc2nc(-c3ccccc3Cl)nc(Nc3cccc(OC(C)C)c3)c2c1 [Example 327, Methyl 2-(2-chlorophenyl)-4-(3-isopropoxyphenylamino)quinazoline-6-carboxylate]	–
+ (+ indicates > 10−fold)	< 1000 nM	CC(C)(C)c1ccc2nc(-c3ccccc3Cl)nc(N3CCCCC3)c2c1 [Example 170, 6-tert-Butyl-2-(2-chlorophenyl)-4-(piperidin-1-yl)quinazoline]	–
− (− indicates ≦ 10−fold)	> 1000 nM	CCOC(=O)N1CCN(c2nc(-c3ccccc3Cl)nc3cc(C(=O)NC)ccc23)CC1 [Example 321, Ethyl 4-(2-(2-chlorophenyl)-7-(methylcarbamoyl)quinazolin-4-yl)piperazine-1-carboxylate]	–
− (− indicates ≦ 10−fold)	> 1000 nM	COC(=O)c1ccc2nc(-c3ccccc3Cl)nc(Nc3cc(OC)cc(OC)c3)c2c1 [Example 328, Methyl 2-(2-chlorophenyl)-4-(3,5-dimethoxyphenylamino)quinazoline-6-carboxylate]	–
− (− indicates ≦ 10−fold)	< 1000 nM	CC1CCN(c2nc(-c3ccccc3Cl)nc3ccccc23)CC1 [Example 58, 2-(2-Chlorophenyl)-4-(4-methylpiperidin-1-yl)quinazoline]	–
− (− indicates ≦ 10−fold)	> 1000 nM	Clc1ccccc1-c1nc(NCC23CC4CC(CC(C4)C2)C3)c2ccccc2n1 [Example 190, 2-(2-Chlorophenyl)-N-(1-adamanthylmethyl)quinazolin-4-amine]	–
− (− indicates ≦ 10−fold)	> 1000 nM	FC(F)(F)Oc1ccc2nc(-c3ccccc3Cl)nc(N3CCCCC3)c2c1 [Example 181, 2-(2-Chlorophenyl)-4-(piperidin-1-yl)-6-(trifluoromethoxy) quinazoline]	–
